This note sets out measurements from patent publication US10358448B2, “Therapeutic compounds for pain and synthesis thereof” (priority 2015, dated 2019).

In experiment [1] the test system is CCl model of neuropathic pain. The experiment in a line: CCl animal model for neuropathic pain in mice. In kind it is in vivo. Particulars: SC, 150 mg/kg, repeated daily administration. From the text:
(§1) Table 7 summarizes the activity of Formula 1 in mice models of neuropathic pain following repeated daily administration using different routes of administration.

In experiment [2] the test system is Taxol model of neuropathic pain. Description: Taxol animal model for neuropathic pain in mice. In kind it is in vivo.
From the text: as §1

[3] abbreviates: PO, 30 mg/kg, repeated daily administration.
The mark [4] stands for this setting: SC, doses tested 1, 3, 10 mg/kg, repeated daily administration.

Where “and” joins values, the source holds several entries; their conditions need not be identical. Identical values can stand only once. Bounds are passed on as bounds.

For the compound `NCC1(CC(=O)O)CCCCC1` [Gabapentin], in experiment [1], the “Duration of activity at maximum effect” value was 4-6 H; the “Level of activity (% of maximum effect-baseline)” value was >100% and 64%; the “Peak of activity (T)” value is 2-3 H.

Consider `CC(C)(C)C(=O)O[C@@H]1C2[C@H]3C[C@H](C[C@@H]1N3CC1CC1)CN2C(=O)CC(F)(F)F` (stereo partly drawn) [Formula 1, (2S,3S,6R,7aR)-1-(cyclopropylmethyl)-4-(3,3,3-trifluoropropanoyl)octahydro-1H-2,6-methanopyrrolo[3,2-b]pyridin-3-yl pivalate], for which, in experiment [2] (setting [3]), the “Duration of activity at maximum effect” value came out at 3 days, the “Level of activity (% of maximum effect-baseline)” value is on record as 100% and the “Peak of activity (T)” value was 1-24 H. In addition, in experiment [2] (PO, dose tested 30 mg/kg), the “Dose of maximum activity” value is less than 30 mg/kg. Besides, the “Dose of maximum activity” value in experiment [2] (SC, doses tested 1, 3, 10 mg/kg) was determined as 1 mg/kg. Besides, in experiment [2] (setting [4]), the “Duration of activity at maximum effect” value turned out to be 3 days and the “Level of activity (% of maximum effect-baseline)” value amounted to 100%.
